Experimental data published in paper PMC10645073, “Interaction of gallium, indium and vanadyl diacetylcurcumin complexes with lysozyme: mechanistic aspects and evaluation of antiamyloidogenic activity” (Royal Society Open Science, 2023).

How the values were obtained:
[1] = target: T1, hen egg white lysozyme (HEWL) (Gallus gallus, UniProt P00698); assay: Synchronous fluorescence spectroscopy of HEWL; format: binding; conditions: Δλ = 60 nm
T1 construct: whose 129 amino acid residues are linked together by four disulfide bridges to form a single polypeptide chain; purchased Sigma-Aldrich L6876; host or cells: hen egg white (natural source, per the protein's name)
Description: To obtain synchronous fluorescence spectra, simultaneous scanning of excitation and emission monochromators was performed in such a way as to maintain a constant wavelength interval between them. The changes in the molecular microenvironment of tyrosine and tryptophan residues of HEWL were monitored by fixing the wavelength interval (Δλ = λem − λex) individually at 15 and 60 nm, respectively. The concentrations of HEWL and three metal complexes of diacetylcurcumin were the same as those mentioned for the intrinsic fluorescence spectroscopy.
To investigate the effect of the metal complexes of diacetylcurcumin on the conformation of tyrosine and tryptophan residues of HEWL, synchronous fluorescence spectra of HEWL were recorded alone and in the presence of the metal complexes (electronic supplementary material, figure S5). By fixing the Δλ value, i.e. the difference between excitation and emission wavelengths, at 15 and 60 nm, synchronous fluorescence spectroscopy provides useful information on the microenvironmental changes of tyrosine and tryptophan residues of proteins, respectively. As shown in the electronic supplementary material, figure S5, all three metal complexes of diacetylcurcumin strongly quench the emission fluorescence of HEWL at both 15 and 60 nm. […] At Δλ = 15 nm, no shift in the emission maximum of HEWL is observed, whereas at Δλ = 60 nm, a 2 nm blue shift is observed in the emission spectrum of tryptophan residues of the protein after the interaction with the metal complexes of diacetylcurcumin except for the VO(DAC)2 complex. […] Overall, it can be concluded that the formation of HEWL/metal complex bioconjugates is associated with the binding of three metal complexes of diacetylcurcumin to both tyrosine and tryptophan residues in which the conformational changes can occur only around the tryptophan residues of the protein. It should be noted that the reduction in the polarity of the microregions surrounding tryptophan residues of the protein has already been observed by the intrinsic emission fluorescence titrations (see §3.1.1.).

[2] = target: T1, hen egg white lysozyme (HEWL); assay: Förster resonance energy transfer (FRET) binding distance, HEWL donor / metal complex acceptor
Source text: Förster resonance energy transfer (FRET) is a sensitive fluorescence-based approach that acts as a spectroscopic ruler to determine the binding distances within 1–10 nm between interacting molecules. Owing to the good overlap between the emission fluorescence spectrum of HEWL, as donor molecule, and the absorption spectra of three metal complexes of diacetylcurcumin, as acceptor molecules (electronic supplementary material, figure S4), the FRET method was used to obtain distance-dependent information of the donor-acceptor pairs. According to Förster's non-radiative energy transfer theory, the value of energy transfer efficiency, E, can be measured using the following equation:3.5 E=1−F/F0=R06/R06+r^6, where R0 and r represent the critical energy transfer distance and distance between donor and acceptor, respectively. The R0 parameter, the distance for 50% energy transfer, can be also calculated by the following equation:3.6 R06=8.79 × 10^−25[K^2n^−4ϕJ(λ)],
where K^2 is the relative orientation of the donor and acceptor (equal to 2/3 for a random orientation), n denotes the average refractive index of the medium (equal to 1.33), and φ represents the fluorescence quantum yield of the donor (equal to 0.15). […] Therefore, it can be concluded that a non-radiative energy transfer process contributes to the fluorescence quenching of HEWL by the metal complexes of diacetylcurcumin. […]

SMILES | microenvironment of tryptophan residues of HEWL [1] | binding distance r between donor and acceptor [2] | energy transfer value (E) [2] [%]
COc1cc(/C=C/C(=O)C=C([O-])/C=C/c2ccc(OC(C)=O)c(OC)c2)ccc1OC(C)=O.COc1cc(/C=C/C(=O)C=C([O-])/C=C/c2ccc(OC(C)=O)c(OC)c2)ccc1OC(C)=O.[O]=[V+2] [VO(DAC)2, vanadyl diacetylcurcumin] | remains unaffected |  | 
COc1cc(C=CC(=O)C=C([O-])C=Cc2ccc(OC(C)=O)c(OC)c2)ccc1OC(C)=O.COc1cc(C=CC(=O)C=C([O-])C=Cc2ccc(OC(C)=O)c(OC)c2)ccc1OC(C)=O.COc1cc(C=CC(=O)C=C([O-])C=Cc2ccc(OC(C)=O)c(OC)c2)ccc1OC(C)=O.[In+3] [In(DAC)3, indium diacetylcurcumin] | more hydrophobic | least value of the binding distance | 18
